The record followed here is ChEMBL document CHEMBL5212743, “Selectivity Literature for EUbOPEN Chemogenomics Library wave 3” (2023).

The target in assay [1] is T1, D(1B) dopamine receptor (Homo sapiens, UniProt P21918). Kind of assay: Selectivity interaction (GPCR panel (PDSP screen)) EUB0000730a DRD5.
Assay [2] deals with 5'-AMP-activated protein kinase catalytic subunit alpha-1 (Homo sapiens, UniProt Q13131). Kind of assay: Selectivity interaction (Enzyme panel (Invitrogen)) EUB0000730a PRKAA1.
Assay [3] concerns the target MAP kinase-activated protein kinase 2 (Homo sapiens, UniProt P49137). Kind of assay: Selectivity interaction (Enzyme panel (Invitrogen)) EUB0000730a MAPKAPK2.
In assay [4] the target is Macrophage metalloelastase (Homo sapiens, UniProt P39900). Kind of assay: Selectivity interaction (MMPs panel (FRET assay)) EUB0000730a MMP12.
Chain of Macrophage metalloelastase (P39900 whole entry): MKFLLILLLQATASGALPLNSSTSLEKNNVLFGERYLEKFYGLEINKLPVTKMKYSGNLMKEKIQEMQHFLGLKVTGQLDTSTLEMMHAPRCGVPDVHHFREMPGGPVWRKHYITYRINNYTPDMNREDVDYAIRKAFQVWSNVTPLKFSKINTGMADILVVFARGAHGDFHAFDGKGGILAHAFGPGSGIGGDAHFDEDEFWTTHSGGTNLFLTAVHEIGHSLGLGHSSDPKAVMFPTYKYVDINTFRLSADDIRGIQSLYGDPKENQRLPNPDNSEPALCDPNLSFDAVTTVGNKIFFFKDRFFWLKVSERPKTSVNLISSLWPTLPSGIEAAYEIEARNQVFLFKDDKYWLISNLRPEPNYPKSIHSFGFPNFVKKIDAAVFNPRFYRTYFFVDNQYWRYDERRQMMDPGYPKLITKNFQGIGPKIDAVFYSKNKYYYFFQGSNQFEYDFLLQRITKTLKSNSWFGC
A further assay concerns the target Aurora kinase A (Homo sapiens, UniProt O14965). The experiment in a line: Selectivity interaction (Enzyme panel (Invitrogen)) EUB0000730a STK6.
The target of another assay is Interstitial collagenase (Homo sapiens, UniProt P03956). Kind of assay: Selectivity interaction (MMPs panel (FRET assay)) EUB0000730a MMP1.
A further assay addresses Stromelysin-1 (Homo sapiens, UniProt P08254). The experiment in a line: Selectivity interaction (MMPs panel (FRET assay)) EUB0000730a MMP3.
A further assay concerns the target T2, Matrilysin (Homo sapiens, UniProt P09237).
T2 sequence (P09237 whole entry): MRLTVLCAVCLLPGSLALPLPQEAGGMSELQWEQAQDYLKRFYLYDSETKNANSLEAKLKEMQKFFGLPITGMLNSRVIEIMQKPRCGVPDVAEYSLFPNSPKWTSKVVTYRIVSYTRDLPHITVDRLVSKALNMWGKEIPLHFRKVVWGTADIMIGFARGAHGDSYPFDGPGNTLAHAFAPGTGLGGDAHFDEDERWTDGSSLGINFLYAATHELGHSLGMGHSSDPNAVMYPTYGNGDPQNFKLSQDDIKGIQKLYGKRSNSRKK
The experiment in a line: Selectivity interaction (MMPs panel (FRET assay)) EUB0000730a MMP7.

The next assay concerns the target Neutrophil collagenase (Homo sapiens, UniProt P22894). Kind of assay: Selectivity interaction (MMPs panel (FRET assay)) EUB0000730a MMP8.
The target in assay [5] is cAMP-dependent protein kinase catalytic subunit alpha (Homo sapiens, UniProt P17612). Kind of assay: Selectivity interaction (Enzyme panel (Invitrogen)) EUB0000730a PRKACA.
For assay [6], the target named is T1, D(1B) dopamine receptor. The conditions noted are these: at 10 µM.
Assay [7] concerns the target Cyclin-dependent kinase 3 (Homo sapiens) (UniProt Q00526). The conditions noted are these: at 100 nM.
Assay [8] has as its target Cyclin-dependent kinase 19 (Homo sapiens) (UniProt Q9BWU1). The conditions noted are these: at 100 nM.
The target of assay [9] is Cyclin-dependent kinase-like 3 (Homo sapiens) (UniProt Q8IVW4). The conditions noted are these: at 100 nM.
The target in assay [10] is T1, D(1B) dopamine receptor. The experiment in a line: Selectivity interaction (GPCR panel (PDSP screen)) EUB0000727a DRD5.
Assay [11] addresses Serine/threonine-protein kinase mTOR (Homo sapiens) (UniProt P42345). The experiment in a line: Selectivity interaction (KinomeScan (DiscoverX)) EUB0000727a MTOR. The following applies: at 100 nM.
In assay [12] the target is SRSF protein kinase 1 (Homo sapiens) (UniProt Q96SB4). Kind of assay: Selectivity interaction (KinomeScan (DiscoverX)) EUB0000727a SRPK1. The following applies: at 100 nM.
The target in assay [13] is Serine/threonine-protein kinase PAK 2 (Homo sapiens) (UniProt Q13177). Kind of assay: Selectivity interaction (KinomeScan (DiscoverX)) EUB0000727a PAK2.
The target in assay [14] is T3, Alpha-1D adrenergic receptor (Homo sapiens, UniProt P25100).
T3 sequence (P25100 whole entry): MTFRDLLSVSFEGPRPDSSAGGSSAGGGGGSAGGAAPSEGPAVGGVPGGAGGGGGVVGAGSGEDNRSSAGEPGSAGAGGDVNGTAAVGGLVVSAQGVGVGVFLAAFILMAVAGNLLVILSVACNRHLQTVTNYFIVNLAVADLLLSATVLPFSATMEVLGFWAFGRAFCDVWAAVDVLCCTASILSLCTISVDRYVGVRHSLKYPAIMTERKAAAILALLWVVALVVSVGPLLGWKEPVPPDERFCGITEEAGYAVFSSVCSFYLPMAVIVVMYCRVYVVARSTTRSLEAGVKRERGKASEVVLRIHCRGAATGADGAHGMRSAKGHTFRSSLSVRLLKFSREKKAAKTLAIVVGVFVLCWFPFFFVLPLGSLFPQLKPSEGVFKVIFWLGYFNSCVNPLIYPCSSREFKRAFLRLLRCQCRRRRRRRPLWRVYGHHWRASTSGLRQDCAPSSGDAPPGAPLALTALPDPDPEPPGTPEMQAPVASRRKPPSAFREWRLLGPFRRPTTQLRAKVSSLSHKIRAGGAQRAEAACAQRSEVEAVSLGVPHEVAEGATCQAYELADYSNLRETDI
The experiment in a line: Selectivity interaction (GPCR panel (PDSP screen)) EUB0000545a ADRA1D.

Assay [15] has as its target Dual specificity tyrosine-phosphorylation-regulated kinase 1B (Homo sapiens, UniProt Q9Y463). Kind of assay: Selectivity interaction (KinomeScan (DiscoverX)) EUB0000545a DYRK1B. The conditions noted are these: at 1 µM.
A further assay addresses Focal adhesion kinase 1 (Homo sapiens, UniProt Q05397). The experiment in a line: Selectivity interaction (KinomeScan (DiscoverX)) EUB0000545a PTK2. The following applies: at 1 µM.
Assay [16] concerns the target Rho-associated protein kinase 1 (Homo sapiens) (UniProt Q13464). The experiment in a line: Selectivity interaction (KinomeScan (DiscoverX)) EUB0000545a ROCK1. The following applies: at 1 µM.
In another assay the target is T4, Adenosine receptor A3 (Homo sapiens, UniProt P0DMS8).
T4 sequence (P0DMS8 whole entry): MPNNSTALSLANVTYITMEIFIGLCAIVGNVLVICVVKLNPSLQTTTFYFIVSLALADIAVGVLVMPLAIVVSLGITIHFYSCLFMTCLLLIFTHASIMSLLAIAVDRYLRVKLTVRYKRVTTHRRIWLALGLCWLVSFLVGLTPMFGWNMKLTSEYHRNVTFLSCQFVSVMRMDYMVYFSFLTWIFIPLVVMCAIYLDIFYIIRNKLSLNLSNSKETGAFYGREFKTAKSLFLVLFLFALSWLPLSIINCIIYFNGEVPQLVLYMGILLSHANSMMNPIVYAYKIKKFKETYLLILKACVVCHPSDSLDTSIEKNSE
The experiment in a line: Selectivity interaction (Eurofins-Panlabs radioligand binding assay ) EUB0000307b ADORA3.

In assay [17] the target is Prostaglandin E2 receptor EP4 subtype (Homo sapiens, UniProt P35408). Kind of assay: Selectivity interaction (Eurofins-Panlabs radioligand binding assay ) EUB0000307b PTGER4.
Chain of Prostaglandin E2 receptor EP4 subtype (P35408 whole entry): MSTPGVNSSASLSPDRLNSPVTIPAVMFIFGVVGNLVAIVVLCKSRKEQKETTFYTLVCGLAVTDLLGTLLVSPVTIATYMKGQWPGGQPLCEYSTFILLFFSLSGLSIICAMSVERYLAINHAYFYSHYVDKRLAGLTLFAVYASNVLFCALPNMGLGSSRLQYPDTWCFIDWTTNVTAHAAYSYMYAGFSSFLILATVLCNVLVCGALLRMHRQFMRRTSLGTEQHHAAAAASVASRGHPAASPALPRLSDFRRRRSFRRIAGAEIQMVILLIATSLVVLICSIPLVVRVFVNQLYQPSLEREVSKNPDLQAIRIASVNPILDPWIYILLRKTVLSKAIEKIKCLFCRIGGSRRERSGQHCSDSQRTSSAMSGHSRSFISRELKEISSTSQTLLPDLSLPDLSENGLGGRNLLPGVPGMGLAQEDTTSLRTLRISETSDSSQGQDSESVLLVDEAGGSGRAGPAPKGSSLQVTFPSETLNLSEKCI
Assay [18] deals with Serine/threonine-protein kinase WNK4 (Homo sapiens) (UniProt Q96J92). Kind of assay: Selectivity interaction (KinomeScan (DiscoverX)) EUB0000307b WNK4. The following applies: at 1 µM.
The target of assay [19] is Epithelial discoidin domain-containing receptor 1 (Homo sapiens, UniProt Q08345). Kind of assay: Selectivity interaction (KinomeScan (DiscoverX)) EUB0000307b DDR1. The following applies: at 1 µM.

T1 sequence (P21918 whole entry): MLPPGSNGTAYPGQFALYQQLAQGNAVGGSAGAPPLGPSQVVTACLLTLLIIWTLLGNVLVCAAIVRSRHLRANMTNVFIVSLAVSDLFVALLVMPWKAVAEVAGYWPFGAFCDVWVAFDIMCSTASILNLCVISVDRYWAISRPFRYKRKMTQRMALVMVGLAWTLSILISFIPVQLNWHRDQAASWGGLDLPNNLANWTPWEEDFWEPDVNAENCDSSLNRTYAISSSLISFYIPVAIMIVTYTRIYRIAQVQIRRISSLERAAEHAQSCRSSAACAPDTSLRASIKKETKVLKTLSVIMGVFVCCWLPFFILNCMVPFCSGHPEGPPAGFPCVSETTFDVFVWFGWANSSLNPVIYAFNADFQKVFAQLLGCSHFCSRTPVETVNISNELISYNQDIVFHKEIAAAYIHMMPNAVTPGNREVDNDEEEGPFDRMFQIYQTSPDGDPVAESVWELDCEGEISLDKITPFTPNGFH
Chain of MAP kinase-activated protein kinase 2 (P49137 whole entry): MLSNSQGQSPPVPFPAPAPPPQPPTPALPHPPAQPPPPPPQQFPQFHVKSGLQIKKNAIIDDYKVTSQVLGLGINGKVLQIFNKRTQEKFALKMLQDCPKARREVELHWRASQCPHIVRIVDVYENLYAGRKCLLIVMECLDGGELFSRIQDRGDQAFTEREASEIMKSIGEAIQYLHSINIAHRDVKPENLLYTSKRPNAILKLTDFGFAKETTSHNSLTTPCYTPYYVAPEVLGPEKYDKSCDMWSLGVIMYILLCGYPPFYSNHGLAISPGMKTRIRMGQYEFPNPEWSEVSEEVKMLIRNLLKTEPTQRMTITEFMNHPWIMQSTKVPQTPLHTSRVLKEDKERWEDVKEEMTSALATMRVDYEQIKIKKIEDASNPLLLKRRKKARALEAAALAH
Chain of Cyclin-dependent kinase 19 (Homo sapiens) (Q9BWU1 whole entry): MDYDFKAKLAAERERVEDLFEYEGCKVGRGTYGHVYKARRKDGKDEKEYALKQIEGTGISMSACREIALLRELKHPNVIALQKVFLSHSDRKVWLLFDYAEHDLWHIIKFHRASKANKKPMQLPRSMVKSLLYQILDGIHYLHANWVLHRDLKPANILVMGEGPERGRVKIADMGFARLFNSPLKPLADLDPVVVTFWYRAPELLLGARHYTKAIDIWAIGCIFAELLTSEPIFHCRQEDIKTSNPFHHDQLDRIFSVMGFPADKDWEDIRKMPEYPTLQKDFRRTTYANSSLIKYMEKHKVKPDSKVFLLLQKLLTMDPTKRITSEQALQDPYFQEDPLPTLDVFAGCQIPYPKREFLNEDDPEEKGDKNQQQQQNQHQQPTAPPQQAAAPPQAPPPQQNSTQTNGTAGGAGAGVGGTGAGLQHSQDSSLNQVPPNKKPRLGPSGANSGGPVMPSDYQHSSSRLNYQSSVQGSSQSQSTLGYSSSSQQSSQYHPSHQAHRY
Chain of Aurora kinase A (O14965 whole entry): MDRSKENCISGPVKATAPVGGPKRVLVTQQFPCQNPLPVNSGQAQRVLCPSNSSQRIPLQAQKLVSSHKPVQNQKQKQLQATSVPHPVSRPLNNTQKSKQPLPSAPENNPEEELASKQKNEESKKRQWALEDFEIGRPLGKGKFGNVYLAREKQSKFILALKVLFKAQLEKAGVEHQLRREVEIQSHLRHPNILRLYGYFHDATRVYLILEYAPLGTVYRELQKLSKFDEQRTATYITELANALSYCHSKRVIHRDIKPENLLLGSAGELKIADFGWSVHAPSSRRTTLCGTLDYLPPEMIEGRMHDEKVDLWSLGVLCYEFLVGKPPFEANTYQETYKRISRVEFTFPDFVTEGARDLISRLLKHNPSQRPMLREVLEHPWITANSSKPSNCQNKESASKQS
Chain of Stromelysin-1 (P08254 whole entry): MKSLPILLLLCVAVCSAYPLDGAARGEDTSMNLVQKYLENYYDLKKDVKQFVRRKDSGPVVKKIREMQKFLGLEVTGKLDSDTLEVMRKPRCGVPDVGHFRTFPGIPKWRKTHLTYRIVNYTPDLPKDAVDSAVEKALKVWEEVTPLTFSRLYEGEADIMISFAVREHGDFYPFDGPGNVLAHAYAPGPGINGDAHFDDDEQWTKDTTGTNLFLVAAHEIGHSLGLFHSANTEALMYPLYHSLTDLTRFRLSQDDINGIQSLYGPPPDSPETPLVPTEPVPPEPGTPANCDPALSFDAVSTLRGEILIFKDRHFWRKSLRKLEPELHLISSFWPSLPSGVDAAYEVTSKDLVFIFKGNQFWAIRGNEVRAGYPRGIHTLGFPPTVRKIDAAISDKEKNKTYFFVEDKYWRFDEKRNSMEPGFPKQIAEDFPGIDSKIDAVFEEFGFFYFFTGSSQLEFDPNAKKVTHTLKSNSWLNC
Chain of Rho-associated protein kinase 1 (Homo sapiens) (Q13464 2-1354 limits assumed): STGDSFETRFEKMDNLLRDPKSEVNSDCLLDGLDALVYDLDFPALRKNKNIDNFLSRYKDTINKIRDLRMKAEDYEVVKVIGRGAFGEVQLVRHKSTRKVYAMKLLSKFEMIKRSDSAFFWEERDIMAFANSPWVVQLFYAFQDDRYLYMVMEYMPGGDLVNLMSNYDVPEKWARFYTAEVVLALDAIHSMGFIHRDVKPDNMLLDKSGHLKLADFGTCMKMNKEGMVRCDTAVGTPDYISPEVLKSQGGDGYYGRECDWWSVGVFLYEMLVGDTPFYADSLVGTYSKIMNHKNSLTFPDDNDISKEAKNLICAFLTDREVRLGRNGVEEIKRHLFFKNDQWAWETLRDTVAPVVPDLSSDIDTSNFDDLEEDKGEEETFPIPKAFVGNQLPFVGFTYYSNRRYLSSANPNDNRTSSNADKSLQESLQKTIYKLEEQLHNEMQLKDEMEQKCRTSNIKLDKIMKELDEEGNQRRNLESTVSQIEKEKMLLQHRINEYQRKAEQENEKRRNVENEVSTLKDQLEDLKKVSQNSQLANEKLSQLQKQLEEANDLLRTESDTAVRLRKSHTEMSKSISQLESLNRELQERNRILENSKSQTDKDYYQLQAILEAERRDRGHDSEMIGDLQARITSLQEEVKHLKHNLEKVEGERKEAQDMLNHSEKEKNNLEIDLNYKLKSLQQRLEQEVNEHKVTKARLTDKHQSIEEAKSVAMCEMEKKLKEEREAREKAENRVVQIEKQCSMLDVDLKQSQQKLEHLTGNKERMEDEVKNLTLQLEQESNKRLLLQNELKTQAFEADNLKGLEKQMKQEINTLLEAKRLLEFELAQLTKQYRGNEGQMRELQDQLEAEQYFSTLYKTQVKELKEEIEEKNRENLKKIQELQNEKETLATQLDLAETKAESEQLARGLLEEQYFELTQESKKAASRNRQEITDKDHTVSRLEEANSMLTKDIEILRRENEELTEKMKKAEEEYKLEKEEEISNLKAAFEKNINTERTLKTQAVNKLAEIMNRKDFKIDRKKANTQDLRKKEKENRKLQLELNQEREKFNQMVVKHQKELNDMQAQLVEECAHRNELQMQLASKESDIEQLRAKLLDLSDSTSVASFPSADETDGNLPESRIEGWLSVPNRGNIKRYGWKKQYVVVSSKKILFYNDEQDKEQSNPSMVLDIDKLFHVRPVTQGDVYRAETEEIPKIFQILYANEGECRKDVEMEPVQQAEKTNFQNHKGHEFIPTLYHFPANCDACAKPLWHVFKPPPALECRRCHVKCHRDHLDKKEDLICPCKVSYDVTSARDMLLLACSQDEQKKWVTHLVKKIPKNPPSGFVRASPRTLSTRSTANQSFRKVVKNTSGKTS
Chain of Cyclin-dependent kinase 3 (Homo sapiens) (Q00526 whole entry, looked up): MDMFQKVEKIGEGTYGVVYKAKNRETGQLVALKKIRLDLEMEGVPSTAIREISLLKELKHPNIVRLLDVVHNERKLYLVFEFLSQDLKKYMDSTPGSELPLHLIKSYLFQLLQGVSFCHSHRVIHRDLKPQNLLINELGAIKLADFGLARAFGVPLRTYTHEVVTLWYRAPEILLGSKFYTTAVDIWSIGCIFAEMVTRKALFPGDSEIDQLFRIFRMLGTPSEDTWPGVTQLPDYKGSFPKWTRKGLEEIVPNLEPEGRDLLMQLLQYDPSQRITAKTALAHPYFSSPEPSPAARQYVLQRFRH

What is called Ki is a measure of affinity in units of concentration, obtained from inhibition or displacement. Read a high Ki as a looser hold on the target. In general, IC50 refers to the midpoint of a concentration-inhibition curve. Regarding `CCOC(=O)c1cc2cc(-c3cc(C(=O)NCc4ccc(C(=O)O)cc4)nn3C)ccc2[nH]1` [BI 4394], at D(1B) dopamine receptor [1], the inhibition constant (Ki) is greater than 10 µM. In addition, the concentration for half-maximal inhibition (IC50) was 1.9 µM in [2]; 1.1 µM in assay [3]; greater than 22 µM in assay [4]; 1.3 µM against Aurora kinase A; greater than 22 µM against Interstitial collagenase; greater than 22 µM at Stromelysin-1. For the same compound, the figures for the IC50 (against Matrilysin; at Neutrophil collagenase; in assay [5]) were greater than 22 µM, greater than 22 µM and 1.6 µM, respectively. The compound further displayed a % of inhibition on D(1B) dopamine receptor [6] of 60%. Moreover, the % of control turned out to be 43% in assay [7], 0% in assay [8] and 0% in assay [9].
In turn, `Cn1nc(C(=O)NCc2ccc(C(=O)O)cc2)cc1-c1ccc2[nH]ccc2c1` [BI 4395] yielded a Ki at D(1B) dopamine receptor [10] greater than 10 µM. Besides, the % of control in assay [11] worked out at 31%; in assay [12] it was 33%; in assay [13], 23%.
Turning to `CC(=O)N1CCC(c2ccc(C(=O)NC3=NCCN3)cc2C(F)(F)F)CC1` [BI 0054], the Ki in assay [14] was greater than 10 µM. For the same compound, the figures for the % of control (in assay [15]; on Focal adhesion kinase 1; in assay [16]) were 37%, 17% and 0.5%, respectively.
In the case of `Cc1c(NC(=O)c2cc(C(N)=O)nc3cc(F)ccc23)c(C(F)(F)F)nn1Cc1ccc(C#N)cc1` [BAY-876], the values for the IC50 (on Adenosine receptor A3; in assay [17]) were 1.14 µM and 1.12 µM, respectively. For the same compound, the % of control in [18] is 0%; in assay [19], 1.5%.
